Columns and labels:
[1] = test system: biofilm; assay: Screen of other compounds for anti-biofilm effect; assay type: cell-based
[2] = test system: Staphylococcus aureus biofilm formation; assay: microbe, parasite or virus in culture; conditions: for IC50 / CC50: Staphylococcus aureus; for IC50: 24 h, read-out: BP50; for CC50: read-out: category based on BP50 and LC50; for anti-biofilm activity (words): pure compounds; for effect on biofilm formation: evaluated at 0.8% and 3%
Description: Staphylococcus aureus and Streptococcus mutans biofilms were grown in Luria-Bertani (LB) broth and brain-heart infusion (BHI) medium containing 0.5% sucrose, respectively. Biofilm formation was assessed using a polystyrene 96 well microtiter plate crystal violet assay. Overnight broth cultures were diluted to an initial optical density (OD600) of 0.01 in fresh media and combined with gesho extract to obtain a final concentration of 7 mg/ml. Treatments were then serially diluted to final extract concentrations of 5, 3, 1, 0.5 and 0.25 mg/ml. Negative controls consisted of cells diluted to an initial optical density (OD600) of 0.01 in growth media without plant extract. 100 μl of treated and untreated samples were added to each well of a microtiter plate and incubated at 37° C. for 24 hours. After 24 hours, planktonic cells and spent growth media were removed from each well and the plate was washed three times in sterile water. Biofilms were then stained with 150 μl of 0.1% crystal violet for 15 minutes at 200 rpm. Excess dye was removed via washing in sterile water and the plate was allowed to air dry.
Staphylococcus aureus and Pseudomonas aeruginosa biofilms were grown in LB broth and PBM-glucose, respectively. Biofilm formation was assessed using a polystyrene 96 well microtiter plate crystal violet assay. […] DMSO was added to solubilize the treatments. Negative controls consisted of cells diluted to an initial OD600 of 0.01 in growth media without treatment. 100 μl of treated and untreated samples were added to each well of a microtiter plate and incubated at 37° C. for 24 h. After 24 h, planktonic cells and spent growth media were removed from each well and the plate was washed 3 times in sterile water. Biofilms were then stained with 150 μl of 0.1% crystal violet for 15 min at 200 rpm. Excess dye was removed via washing in sterile water and the plate was allowed to air dry.
Biofilm formation was assessed using a polystyrene 96 well microtiter plate crystal violet assay.^23 Overnight broth cultures were diluted to an initial OD600 of 0.01 in fresh LB and combined with a target compound to obtain a final concentration of 7 mg/ml. Treatments were then serially diluted to final extract concentrations of 5, 3, 1, 0.5 and 0.25 mg/ml. No vehicles were added to solubilize the treatments. Untreated cells served as negative controls. 100 μl of treated and untreated samples were added to each well of a microtiter plate and incubated at 37° C. for 24 h. After 24 h, planktonic cells and spent growth media were removed from each well and the plate was washed 3 times in sterile water. Biofilms were then stained with 150 μl of 0.1% crystal violet for 15 min at 200 rpm. Excess dye was removed via washing in sterile water and the plate was allowed to air dry. […] The molarity of each treatment was calculated using excel.

[3] = test system: Staphylococcus aureus log-phase planktonic cells; assay: Log-phase cell antimicrobial assay; assay type: cell-based, Staphylococcus aureus ATCC 6538; conditions: pure compounds, with or without 1% DMSO
Description: Bacteria were inoculated in 20 ml of growth media at an initial optical density (OD600) of 0.01 and incubated at 37° C., 200 rpm until log-phase was reached. One milliliter of log-phase cells was transferred to 1.5 ml microfuge tubes and growth media removed via centrifugation. Pelleted cells were washed twice with phosphate buffered saline (PBS) before resuspending the pellets in 1 ml of extract dissolved in PBS. Treatments were incubated at 37° C. for 1 hour then serially diluted in PBS and radially plated on growth agar.
Bacteria were inoculated in 20 ml of growth media at an initial optical density (OD600) of 0.01 and incubated for 4±1 h at 37° C. with shaking at 200 rpm until log phase (OD600≈0.35) was reached. 1 ml of log-phase cells was transferred to 1.5 ml microfuge tubes and the growth medium was removed via centrifugation. Pelleted cells were washed twice with phosphate buffered saline (PBS) before resuspending the pellets in 1 ml of 4-ethoxybenzoic acid or methyl gallate with or without vancomycin dissolved in PBS. Treatments were incubated at 37° C. for 1 h and then serially diluted in PBS and radially plated on growth agar.

[4] = test system: Staphylococcus aureus stationary phase planktonic cells; conditions: pure compounds, with or without 1% DMSO
Description: To assess the viability of stationary phase planktonic cell, a growth agar based assay was conducted. Spent media containing stationary phase planktonic cells was collected after a biofilm formation assay. Collected cells were serially diluted in PBS and dilutions were radially plated in 10 μl volumes on growth medium. Agar plates were incubated at 37° C. overnight to allow for colony formation. Plate counts were used to assess viability.
To assess the viability of stationary phase planktonic cells, a growth agar-based assay was conducted. Spent media containing stationary phase planktonic cells were collected from microtiter plates after the conclusion of each biofilm formation assay. The collected cells were serially diluted (1:10) in PBS and dilutions were radially plated in 10 μl volumes on growth medium. Agar plates were incubated at 37° C. overnight to allow for colony formation and plate counts were used to assess viability. Colony forming units per milliliter of culture (CFU/mL) was calculated by dividing the colony counts (C) by the volume added (V) multiplied by the dilution factor (D): […]

[5] = test system: Staphylococcus aureus hydrophobicity; assay: Hydrophobicity test (microbial adherence to hydrocarbon); assay type: cell-based; conditions: 0.2 or 0.4 mg/mL, 24 h
Description: Hydrophobicity analysis was conducted according to Ciccio, et al., 2015 with a few modifications. Three milliliters of Staphylococcus aureus cultures were grown in the presence of 4-ethoxybenzoic acid (0.2 or 0.4 mg/mL) or methyl gallate (0.2 or 0.4 mg/mL) for 24 h at 37° C. with shaking at 200 rpm. Cultures were diluted to an OD600 of 0.6 and washed with 1 mL PBS. 5 mL of the inoculum was produced, 1 mL was removed for plating on growth agar and 1 mL of hexadecane was applied to the air-liquid interface or the remaining 4 mL. Hexadecane samples were vortexed for 1 min and the phases allowed to separate for 15 minutes at room temperature. 1 mL of the aqueous layer was removed and plated on growth agar. Agar plates were incubated at 37° C. overnight and plate counts were conducted the following day. Results were interpreted as the percent of cells present in the aqueous layer prior to (A0) and after (A1) the addition of hexadecane [(A0−A1)/A0]*100.

[6] = test system: Staphylococcus aureus growth; assay: Staphylococcus aureus growth curve; assay type: cell-based, Staphylococcus aureus ATCC 6538
Description: 2 mL of each treatment was added to 19 culture tubes and the samples were incubated for 24 h at 37° C. with shaking at 200 rpm. 1 mL of each sample was transferred to a cuvette and the absorbance measurements at 600 nm were taken every hour for 9 hours. 24 h measurements were taken the following day. Untreated samples and samples containing 1.6 μg/mL vancomycin served as a negative and positive controls, respectively. Growth rates were calculated using the slope of the log phase of growth (t=0 h and t=4 h).

[7] = test system: Staphylococcus aureus biofilms; assay: Staphylococcus aureus biofilm killing assay (resazurin); assay type: cell-based, Staphylococcus aureus ATCC 6538; conditions: combination with vancomycin at its MBEC
Description: Staphylococcus aureus biofilms were formed as described above. Staphylococcus aureus biofilms were grown in LB broth. […] […]. Negative controls consisted of 100 μL of fresh LB without compound or antibiotic. […] 100 μL of 10 μg/mL resazurin in LB was added to each biofilm and the plate was statically incubated at 37° C. for 3 hrs. During incubation, fluorescence intensity was measured at λex=570 nm λem=590 nm every 6 minutes using an Enspire fluorescence plate reader. Data was normalized to the emission at t=0 and the rates of resazurin conversion to resorufin was calculated to identify the time at which maximum fluorescence was achieved.

SMILES: CCCCCCCCC(C)O (stereo not shown) [2-decanol]
- anti-biofilm effect [1]: anti-biofilm effect

SMILES: O=C(O)c1cccc(O)c1O [pyrocatechuic acid, 2,3-dihydroxybenzoic acid]
- IC50 [2]: 4.8 mM
- CC50 [2]: < 15 mM

SMILES: CCOC(=O)c1ccc(OCC)cc1 [EEB, ethyl 4-ethoxybenzoate]
- antibacterial activity against log phase cells [3]: did not show antibacterial activity
- CC50 [2]: > 7.5 mM
- effect of DMSO on anti-biofilm activity ([2]; combined with 1% DMSO): presence of DMSO increased the anti-biofilm activity of EEB
- anti-biofilm activity (words) [2]: significant anti-biofilm activity
- anti-biofilm activity (words) ([2]; listed as ethyl 4-ethoxybenzoate): anti-biofilm activity
- antibacterial activity against stationary phase cells [4]: did not show antibacterial activity

SMILES: CCOc1ccc(C(=O)O)cc1 [4-ethoxybenzoic acid]
- hydrophobicity of S. aureus [5]: decreased the hydrophobicity
- IC50 [2]: 1.6 mM
- CC50 [2]: < 7.5 mM
- Percent attenuation ([6]; 1.2 mM): 12%
- Growth rate ([6]; 1.2 mM, t=0 to t=4 h): 0.97 log replications/hr
- Percent attenuation ([6]; 2.4 mM): 47%
- Growth rate ([6]; 2.4 mM, t=0 to t=4 h): 0.58 log replications/hr
- synergism with vancomycin in biofilm killing [7]: synergistic effects

SMILES: O=C(O)c1cc(O)ccc1O [gentisic acid, 2,5-dihydroxybenzoic acid]
- IC50 [2]: 9.2 mM

SMILES: O=C(O)c1ccc(O)c(O)c1 [protocatechuic acid, 3,4-dihydroxybenzoic acid]
- IC50 [2]: 14.4 mM
- CC50 [2]: < 15 mM

SMILES: O=C(O)c1cc(O)c(O)c(O)c1 [gallic acid]
- IC50 [2]: 17.3 mM
- CC50 [2]: > 7.5 mM

SMILES: O=C(O)c1ccccc1O [salicylic acid, 2-hydroxybenzoic acid]
- IC50 [2]: 38.5 mM
- CC50 [2]: > 7.5 mM

SMILES: CCCC(C)=O [2-pentanone, reference compound]
- effect on biofilm formation [2]: Neither benzoic acid nor 2-pentanone had a statistically significant effect on biofilm formation

SMILES: COC(=O)c1cc(O)c(O)c(O)c1 [methyl gallate]
- hydrophobicity of S. aureus [5]: decreased the hydrophobicity
- IC50 [2]: 0.82 mM
- CC50 [2]: < 7.5 mM
- Percent attenuation ([6]; 1.1 mM): 30%
- Growth rate ([6]; 1.1 mM, t=0 to t=4 h): 0.77 log replications/hr
- Percent attenuation ([6]; 1.2 mM): 46%
- Growth rate ([6]; 1.2 mM, t=0 to t=4 h): 0.59 log replications/hr
- synergism with vancomycin in biofilm killing [7]: did not exhibit synergism

SMILES: COC(=O)c1ccc(O)cc1 [methyl paraben, 4-hydroxybenzoic acid methyl ester]
- Percent attenuation ([6]; 5.2 mM): 25%
- Growth rate ([6]; 5.2 mM, t=0 to t=4 h): 0.83 log replications/hr

SMILES: CN[C@H](CC(C)C)C(=O)N[C@H]1C(=O)N[C@@H](CC(N)=O)C(=O)N[C@H]2C(=O)N[C@H]3C(=O)N[C@H](C(=O)N[C@H](C(=O)O)c4cc(O)cc(O)c4-c4cc3ccc4O)[C@H](O)c3ccc(c(Cl)c3)Oc3cc2cc(c3O[C@@H]2O[C@H](CO)[C@@H](O)[C@H](O)[C@H]2O[C@H]2C[C@](C)(N)[C@H](O)[C@H](C)O2)Oc2ccc(cc2Cl)[C@H]1O [vancomycin, reference compound]
- Growth rate ([6]; 1.1 μM, positive control): 0.0 log replications/hr
- Percent attenuation ([6]; 1.1 μM, positive control): 100%

SMILES: CCOC(=O)c1cc(O)c(O)c(O)c1 [ethyl gallate]
- IC50 [2]: 6.7 mM
- CC50 [2]: < 15 mM

SMILES: O=C(O)c1ccc(O)cc1 [p-hydroxybenzoic acid, 4-hydroxybenzoic acid]
- IC50 [2]: 8 mM
- CC50 [2]: < 15 mM

SMILES: O=C(O)c1ccccc1 [benzoic acid, reference compound]
- effect on biofilm formation [2]: Neither benzoic acid nor 2-pentanone had a statistically significant effect on biofilm formation

SMILES: O=C(O)c1cccc(O)c1 [3-hydroxybenzoic acid]
- IC50 [2]: 9.6 mM
- CC50 [2]: < 15 mM

SMILES: CCCOC(=O)c1cc(O)c(O)c(O)c1 [propyl gallate]
- IC50 [2]: 2.9 mM
- CC50 [2]: < 15 mM

— US12403169B2, “Compositions and methods related to Rhamnus prinoides (gesho) extract for the inhibition of polymicrobial biofilm formation” (GEORGIA STATE UNIVERSITY RESEARCH FOUNDATION, INC., priority 2018, dated 2025)
